Measurements reported in patent US10563263B2, “Genetic polymorphisms associated with statin response and cardiovascular diseases, methods of detection and uses thereof” (CELERA CORPORATION, priority 2010, dated 2020).

System: revascularization, unstable angina requiring hospitalization, MI, all causes of death, or stroke
Experiment: PROVE IT-TIMI 22: SNP by treatment interaction (high-dose atorvastatin vs standard-dose pravastatin), logistic regression (synergy index), primary composite endpoint
Format: in vivo, human
Details: atorvastatin vs pravastatin; for OR (SNP by treatment interaction, logistic regression): PROVE-IT; for OR: PROVEIT

CC(C)c1c(C(=O)Nc2ccccc2)c(-c2ccccc2)c(-c2ccc(F)cc2)n1CC[C@@H](O)C[C@@H](O)CC(=O)O [Atorvastatin, atorvastatin]
OR (SNP by treatment interaction, logistic regression) (rs992695, Imputed, allele C (A1), model DOM, NMISS 442): 1.216 | OR (SNP by treatment interaction, logistic regression) (rs9866421, Genotyped, allele C (A1), model REC, NMISS 443): 0.5895 | OR (SNP by treatment interaction, logistic regression) (rs9881685, Imputed, allele A (A1), model ADD, NMISS 440): 1.041 | OR (SNP by treatment interaction, logistic regression) (rs9881685, Imputed, allele A (A1), model DOM, NMISS 440): 1.041 | OR (SNP by treatment interaction, logistic regression) (rs9936999, Imputed, allele G (A1), model DOM, NMISS 266): 0.7758 | OR (marker rs2574, cohort, model rec, End-point CVD): 1.62 | OR (marker rs7508, caseonly, model dom, End-point CHD): 1.65 | OR (marker rs198464, cohort, model rec, End-point CHD): 1.44 | OR (marker rs198476, caseonly, model rec, End-point CHD): 1.85 | OR (marker rs264122, cohort, model dom, End-point CHD): 0.72 | OR (marker rs271046, caseonly, model rec, End-point CVD): 0.68 | OR (marker rs494111, caseonly, model rec, End-point CHD): 0.44 | OR (marker rs498657, caseonly, model add, End-point CHD): 1.57 | OR (marker rs619825, caseonly, model rec, End-point CHD): 0.40 | OR (marker rs646749, caseonly, model rec, End-point CHD): 0.40 | OR (marker rs694780, caseonly, model rec, End-point CHD): 0.40 | OR (marker rs892162, caseonly, model rec, End-point CHD): 0.64 | OR (marker rs974950, cohort, model dom, End-point CVD): 0.64 | OR (marker rs996022, caseonly, model rec, End-point CHD): 0.41 | OR (marker rs1003322, caseonly, model dom, End-point CHD): 1.41 | OR (marker rs1009748, cohort, model add, End-point CVD): 1.43 | OR (marker rs1136046, caseonly, model add, End-point CVD): 1.48 | OR (marker rs1190706, cohort, model dom, End-point CVD): 0.76 | OR (marker rs1266489, cohort, model dom, End-point CVD): 0.67 | OR (marker rs1336400, cohort, model dom, End-point CHD): 1.46 | OR (marker rs1344081, caseonly, model dom, End-point CVD): 1.31 | OR (marker rs1450092, caseonly, model add, End-point CHD): 0.81 | OR (marker rs1524962, caseonly, model add, End-point CHD): 0.80 | OR (marker rs1566221, cohort, model add, End-point CHD): 0.68 | OR (marker rs1727746, cohort, model dom, End-point CVD): 1.30 | OR (marker rs1798093, cohort, model rec, End-point CHD): 2.00 | OR (marker rs1942876, caseonly, model rec, End-point CHD): 0.41 | OR (marker rs2011318, caseonly, model add, End-point CHD): 0.63 | OR (marker rs2060022, caseonly, model rec, End-point CVD): 0.72 | OR (marker rs2108425, cohort, model dom, End-point CHD): 0.77 | OR (marker rs2110564, cohort, model dom, End-point CVD): 0.60 | OR (marker rs2113334, caseonly, model rec, End-point CVD): 0.29 | OR (marker rs2327412, cohort, model add, End-point CVD): 1.38 | OR (marker rs2505039, cohort, model add, End-point CHD): 0.84 | OR (marker rs2588350, cohort, model add, End-point CVD): 0.82 | OR (marker rs2648694, cohort, model rec, End-point CVD): 1.72 | OR (marker rs2655222, caseonly, model rec, End-point CHD): 0.23 | OR (marker rs2657940, caseonly, model add, End-point CHD): 1.20 | OR (marker rs2993156, caseonly, model dom, End-point CVD): 0.75 | OR (marker rs3763978, cohort, model add, End-point CVD): 0.84 | OR (marker rs4038018, caseonly, model dom, End-point CHD): 0.76 | OR (marker rs4240808, caseonly, model rec, End-point CVD): 0.56 | OR (marker rs4242281, caseonly, model rec, End-point CVD): 2.08 | OR (marker rs4420312, caseonly, model dom, End-point CHD): 0.59 | OR (marker rs4472926, caseonly, model dom, End-point CHD): 0.53 | OR (marker rs4660234, cohort, model dom, End-point CHD): 1.45 | OR (marker rs4787415, caseonly, model rec, End-point CHD): 0.62 | OR (marker rs4807536, caseonly, model dom, End-point CVD): 1.53 | OR (marker rs4836745, caseonly, model dom, End-point CVD): 0.65 | OR (marker rs4870109, caseonly, model rec, End-point CVD): 1.97 | OR (marker rs6427807, cohort, model dom, End-point CVD): 0.66 | OR (marker rs6539231, caseonly, model dom, End-point CVD): 0.68 | OR (marker rs6563805, caseonly, model add, End-point CHD): 0.53 | OR (marker rs6585412, cohort, model dom, End-point CVD): 1.39 | OR (marker rs6685920, cohort, model dom, End-point CVD): 1.45 | OR (marker rs6998016, caseonly, model rec, End-point CHD): 6.19 | OR (marker rs7018577, caseonly, model dom, End-point CHD): 1.44 | OR (marker rs7070244, caseonly, model add, End-point CVD): 1.30 | OR (marker rs7078016, cohort, model dom, End-point CVD): 1.41 | OR (marker rs7222186, caseonly, model dom, End-point CHD): 0.50 | OR (marker rs7276749, cohort, model dom, End-point CVD): 0.45 | OR (marker rs7332076, caseonly, model rec, End-point CVD): 2.40 | OR (marker rs7338174, caseonly, model dom, End-point CHD): 2.50 | OR (marker rs7449527, caseonly, model dom, End-point CHD): 1.53 | OR (marker rs7710039, caseonly, model dom, End-point CVD): 0.70 | OR (marker rs7839562, caseonly, model dom, End-point CHD): 1.54 | OR (marker rs7916629, caseonly, model rec, End-point CVD): 2.11 | OR (marker rs7918692, caseonly, model dom, End-point CVD): 1.48 | OR (marker rs7959965, caseonly, model add, End-point CVD): 0.74 | OR (marker rs8129810, cohort, model dom, End-point CVD): 0.45 | OR (marker rs9478241, caseonly, model rec, End-point CVD): 2.08 | OR (marker rs9914580, caseonly, model dom, End-point CHD): 0.51 | OR (marker rs10012485, cohort, model dom, End-point CVD): 0.54 | OR (marker rs10497883, caseonly, model add, End-point CHD): 0.68 | OR (marker rs10518335, caseonly, model dom, End-point CVD): 0.55 | OR (marker rs10774580, caseonly, model dom, End-point CHD): 0.63 | OR (marker rs10945874, cohort, model add, End-point CVD): 1.72 | OR (marker rs11138314, cohort, model add, End-point CHD): 0.64 | OR (marker rs11585647, caseonly, model dom, End-point CVD): 0.49 | OR (marker rs11721179, caseonly, model dom, End-point CVD): 0.64 | OR (marker rs11734256, cohort, model rec, End-point CVD): 0.57 | OR (marker rs12048902, caseonly, model add, End-point CVD): 0.72 | OR (marker rs12341095, cohort, model rec, End-point CHD): 1.63 | OR (marker rs12646525, cohort, model dom, End-point CVD): 0.59 | OR (marker rs12679254, caseonly, model dom, End-point CVD): 0.79 | OR (marker rs12817873, cohort, model add, End-point CVD): 0.85 | OR (marker rs13107334, cohort, model dom, End-point CVD): 0.53 | OR (marker rs13126170, caseonly, model dom, End-point CVD): 0.53
